Series [1] concerns LNCaP cells. As to the kind of experiment: growth inhibition of human prostate carcinoma cells (cell counting). As to conditions: 0.1 μM OH—F. Format: cell-based. An excerpt:
The growth of prostate cells and prostate cancer cells is originally dependent on androgens.
The cells were trypsinized and counted using a counting cell chamber on the indicated days.

Series [2] concerns the target T1, human androgen receptor (hAR) (Homo sapiens, UniProt P10275).
T1 construct: expressed in transfected cells; host or cells: CV1 monkey kidney cells (lacking endogenous androgen receptor)
T1 sequence (P10275 1-920): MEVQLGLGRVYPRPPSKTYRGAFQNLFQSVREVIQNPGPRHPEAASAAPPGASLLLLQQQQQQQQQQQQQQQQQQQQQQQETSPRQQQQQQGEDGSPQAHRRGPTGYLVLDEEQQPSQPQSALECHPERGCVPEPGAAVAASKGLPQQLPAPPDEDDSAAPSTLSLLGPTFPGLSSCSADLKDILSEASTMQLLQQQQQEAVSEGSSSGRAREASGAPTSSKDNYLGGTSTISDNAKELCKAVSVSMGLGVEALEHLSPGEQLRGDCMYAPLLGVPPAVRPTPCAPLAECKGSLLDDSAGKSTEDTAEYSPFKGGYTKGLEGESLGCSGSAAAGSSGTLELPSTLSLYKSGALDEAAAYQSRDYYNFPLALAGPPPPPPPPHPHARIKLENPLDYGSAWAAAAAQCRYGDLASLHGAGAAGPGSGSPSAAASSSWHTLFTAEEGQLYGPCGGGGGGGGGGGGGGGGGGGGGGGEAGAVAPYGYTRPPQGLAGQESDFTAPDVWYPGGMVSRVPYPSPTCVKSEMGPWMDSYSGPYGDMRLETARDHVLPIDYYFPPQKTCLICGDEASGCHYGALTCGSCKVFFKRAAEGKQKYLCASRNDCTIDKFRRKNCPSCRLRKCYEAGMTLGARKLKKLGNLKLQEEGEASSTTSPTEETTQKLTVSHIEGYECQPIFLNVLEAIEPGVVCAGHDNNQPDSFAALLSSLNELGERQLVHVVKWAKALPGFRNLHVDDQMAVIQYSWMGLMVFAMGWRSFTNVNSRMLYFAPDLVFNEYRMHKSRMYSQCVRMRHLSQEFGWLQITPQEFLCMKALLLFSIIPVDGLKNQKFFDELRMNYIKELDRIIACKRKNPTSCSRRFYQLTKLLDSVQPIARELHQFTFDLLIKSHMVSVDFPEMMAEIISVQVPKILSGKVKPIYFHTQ
Description: reporter gene-based (MMTV-luc luciferase) test for antiandrogenic activity in transfected CV1 cells. Format: cell-based. The conditions noted are these: compounds at 10 μM; high R1881 concentration 3×10^−8 M. The procedure:
Monkey kidney cells, line CV1, lacking endogenous androgen receptor were cultured in Dulbecco's modified Eagle's medium (DMEM), supplemented with 10% (v/v) fetal calf serum, penicillin (100 IU/ml) and streptomycin (100 IU/ml) at 37° C. and 5% CO2.
For the transfection experiments, cells were seeded onto 6-well tissue culture plates (Nunc, Roskilde, Denmark) with a density of 1.2×10^5 cells per well and grown in DMEM medium supplemented with 10% (v/v) dextran-coated activated charcoal stripped serum. Six hours after seeding, the cells were transfected by using the Ca3(PO4)2 method. The human androgen receptor (hAR) expression vector (0.2 μg) was cotransfected with 1 μg of the reporter plasmid MMTV-luc and 0.2 μg of the cytomegalovirus (CMV)-driven β-galactosidase expression […], as internal control for transfection efficiency. After 14 hours, the medium was replaced either without (white bars in FIGS. […] 1), fractions (FIG. 2) or substances (FIG. 3). After an additional 48 hours, cells were harvested and assayed for luciferase and β-galactosidase activity.
Luciferase activity was determined by injecting luciferin and measuring light emission at 562 nm and expressed as relative light units (RLU) by using the values of β-galactosidase activity for normalisation of the luciferase activity. All transfection assays shown were performed in duplicate and were repeated at least twice.
For determining antiandrogenic activity in the various extracts from the bark of P. africanum, the extracts were used at a concentration of 300 μg/ml.
For determining the antiandrogenic activity in the fractions of the selective methylene chloride extracts, 2 μl of the respective fraction was used, corresponding to a final concentration of 30 μg/ml. Fractions F6 to F10 were additionally tested with 4 μl, corresponding to 60 μg/ml final concentration.
For orientation: Reporter assays use an easily measured gene product as a stand-in for the process of interest.

The conditions of series [3]: environment; cited from earlier work.
The conditions of series [4]: cited from earlier work.

Usually melting point stands for the temperature, or range, at which the solid turns liquid.

As to `CC(C)(O)C(=O)Nc1ccc([N+](=O)[O-])c(C(F)(F)F)c1` [OH—F, hydroxyflutamide], the “proliferation of LNCaP cells (FIG. 4)” value in series [1] is reported as “did not lead to reduction in cell proliferation”.

Turning to `CC(C)=CCC/C(C)=C/CNS(=O)(=O)c1ccc([N+](=O)[O-])c(C(F)(F)F)c1` [S14, N-[(2E)-3,7-Dimethylocta-2,6-diene-1-yl]-4-nitro-3-(trifluoromethyl)-benzenesulfonamide], in series [2], the “inhibition of the AR-mediated transactivation, compared with NBBS (FIG. 6)” value (“inhibition … compared with NBBS (FIG. 6)” for short) is “enhanced antiandrogenic activity”. Turning to `CCCCNS(=O)(=O)c1ccccc1` [NBBS, N-butylbenzenesulfonamide], the stability result in series [3] is given as “very stable”. Moreover, the “solubility in alcohols and benzene” value in series [4] (alcohols and benzene) was “moderate solubility”. In addition, the solubility in water entry in series [4] (water) is given as “practically insoluble”. `CCCCNS(=O)(=O)c1ccc([N+](=O)[O-])c(C(F)(F)F)c1` [S13, N-Butyl-4-nitro-3-(trifluoromethyl)benzenesulfonamide]: the “inhibition … compared with NBBS (FIG. 6)” value in series [2] was “enhanced antiandrogenic activity”.

With `CCCCNS(=O)(=O)c1cccc(C(F)(F)F)c1` [S10, N-Butyl-3-(trifluoromethyl)benzenesulfonamide], in series [2], the “inhibition … compared with NBBS (FIG. 6)” value is given as “enhanced antiandrogenic activity”. As to `CCCCCNS(=O)(=O)c1ccccc1` [S9, N-Pentylbenzenesulfonamide], the “inhibition … compared with NBBS (FIG. 6)” value in series [2] was “enhanced the antiandrogenic activity”. With `CCCCCCCCCCCCNS(=O)(=O)c1ccccc1` [S12, N-Dodecylbenzenesulfonamide], the melting point lay in the range of 59 to 61 °C. In addition, the “inhibition … compared with NBBS (FIG. 6)” value in series [2] is reported as “weakened the androgen antagonistic potency”. Regarding `CC(C)=CCC/C(C)=C/CNS(=O)(=O)c1cccc(C(F)(F)F)c1` [S11, N-[(2E)-3,7-dimethylocta-2,6-diene-1-yl]-3-(tri-fluoromethyl)benzenesulfonamide], the “inhibition … compared with NBBS (FIG. 6)” value in series [2] is recorded as “enhanced antiandrogenic activity”. Same read-out and setting: as for `CC(C)=CCC/C(C)=C/CNS(=O)(=O)c1ccccc1` [S4, N-[(2E)-3,7-Dimethylocta-2,6-diene-1-yl]benzenesulfonamide], the entry is “enhanced the antiandrogenic activity”.

The values are drawn from patent US7700654B2 (LTS Lohmann Therapie-Systeme AG, priority 2005, dated 2010).
